For 32 molecules, inhibition results are on record in patent publication EP1144368B1, “ACETYLENIC ALPHA-AMINO ACID-BASED SULFONAMIDE HYDROXAMIC ACID TACE INHIBITORS” (priority 1999, dated 2000).

Structures are written as SMILES. Structures can show the parent of a compound that is named as a salt.

One assay relates to THP-1 cells. Nature of the assay: THP-1 Soluble Protein Assay (LPS-stimulated; ELISA of TNF-a, TNF-R p75/80, TNF-R p55/60, IL-8). In kind it is cell-based, human. Particulars: Homo sapiens, THP-1, 3 µM; read-out: THP % Inhibition @ 3µM. For orientation: ELISA stands for enzyme-linked immunosorbent assay.
Description: Each vial of cells are cultured for about two weeks prior to being used for an assay and then are used for only 4 to 6 weeks to screen compounds.
Plates are placed into an incubator set at 5% CO2 and at 37° C. After 4 hours of incubation, 300 ml/well of tissue culture supernatant (TCS) is removed for use in an TNF-a ELISA.
Percent change in each soluble protein evaluated from the "vehicle positive control" was calculated for each compound concentration with the following formula: % Change =(pg/ml (compound) - pg/ml (veh pos control))/(pg/ml (veh pos control) - pg/ml (veh neg control))x 100 [formula]
For the soluble protein (TNF-a, p75/80, p55/60, IL-8) studies under stimulated conditions, the mean pg/ml of duplicate wells were determined and the results expressed as percent change from "vehicle positive control".
As a reminder, the inhibition is the change of the read-out against control, counted positive when it falls. With `CC#CCOc1ccc(S(=O)(=O)N2[C@@H](C(=O)NO)C(C)(C)SC[C@@H]2C)cc1` [Example 270, (3S,5S)-4-{[4-(2-Butynyloxy)phenyl]sulfonyl}-N-hydroxy-2,2,5-trimethyl-3-thiomorpholinecarboxamide], the inhibition at 3 µM stood at 62%.
On to `CC#CCOc1ccc(S(=O)(=O)N2[C@H](C)CSC(C)(C)[C@@H]2C(=O)NO)cc1` [Example 271, (3S,5R)-4-{[4-(2-Butynyloxy)phenyl]sulfonyl}-N-hydroxy-2,2,5-trimethyl-3-thiomorpholinecarboxamide], for which the inhibition at 3 µM is 82%.
As to `CC#CCOc1ccc(S(=O)(=O)N2C[C@H](C)SC(C)(C)[C@@H]2C(=O)NO)cc1` [Example 272, (3S,6S)-4-{[4-(2-Butynyloxy)phenyl]sulfonyl}-N-hydroxy-2,2,6-trimethyl-3-thiomorpholinecarboxamide], the inhibition at 3 µM was 92%.
The same measure, in the same setting: the result for `CC#CCOc1ccc(S(=O)(=O)N2C[C@@H](CNC(=O)OC(C)(C)C)SC(C)(C)[C@@H]2C(=O)NO)cc1` [Example 273, tert-Butyl{(2R,5S)-4-{[4-(2-butynyloxy)phenyl]sulfonyl}-5-[(hydroxyamino)carbonyl]-6,6-dimethylthiomorpholinyl}methylcarbamate] reads 90%; that for `CC#CCOc1ccc(S(=O)(=O)N2C[C@@H](CN)SC(C)(C)[C@@H]2C(=O)NO)cc1` [Example 275, (3S,6R)-Trans-6-(aminomethyl)-4-{[4-(2-butynyloxy)phenyl]sulfonyl}-N-hydroxy-2,2-dimethyl-3-thiomorpholinecarboxamide hydrochloride], 82%.
The same measure, in the same setting: the result for `CC#CCOc1ccc(S(=O)(=O)N2C[C@H](CC(=O)OC(C)(C)C)SC(C)(C)[C@@H]2C(=O)NO)cc1` [Example 277, tert-Butyl{(2S,5S)-4-{[4-(2-butynyloxy)phenyl]sulfonyl}-5-[(hydroxyamino)carbonyl]-6,6-dimethylthiomorpholinyl}acetate] reads 69%.
In the case of `CC#CCOc1ccc(S(=O)(=O)N2C[C@H](CC(=O)O)SC(C)(C)[C@@H]2C(=O)NO)cc1` [Example 278, {(2S,5S)-4-{[4-(2-Butynyloxy)phenyl]sulfonyl}-5-[(hydroxyamino)carbonyl]-6,6-dimethylthiomorpholinyl}acetic acid], the inhibition at 3 µM is 89%.

The assay is the same for the next values; noted with them: Homo sapiens, THP-1, read-out: THP % inhibition @ 3 µM.
Turning to `CC1(C)SCCN(S(=O)(=O)c2ccc(OCC#CCO)cc2)[C@H]1C(=O)NO` [Example 260, (3S)-N-Hydroxy-4-({4-[(4-hydroxy-2-butynyl)oxy]phenyl}sulfonyl)-2,2-dimethyl-3-thiomorpholine carboxamide], the inhibition at 3 µM was 95%.

Staying with this assay, now noted: Homo sapiens, THP-1, read-out: THP % inhibition @ 3 µM, 3 µM.
For `CC1(C)SCCN(S(=O)(=O)c2ccc(OCC#CCCOC3CCCCO3)cc2)C1C(=O)NO` (centres unmarked) [Example 243, N-Hydroxy-2,2-dimethyl-4-[(4-{[5-(tetrahydro-2H-pyran-2-yloxy)-2-pentynyl]oxy}phenyl)sulfonyl]-3-thiomorpholine carboxamide], the inhibition at 3 µM was 52%.
On to `CC1(C)SCCN(S(=O)(=O)c2ccc(OCC#CCCO)cc2)C1C(=O)NO` (centres unmarked) [Example 244, N-Hydroxy-4-({4-[(5-hydroxy-2-pentynyl)oxy]phenyl}sulfonyl)-2,2-dimethyl-3-thiomorpholine carboxamide], for which the inhibition at 3 µM came out at 57%.
Same read-out and setting: in the case of `CC(C)(C)OC(=O)NCCC#CCOc1ccc(S(=O)(=O)N2CCSC(C)(C)C2C(=O)NO)cc1` (centres unmarked) [Example 245, tert-Butyl 5-[4-({3-[(hydroxyamino)carbonyl]-2,2-dimethyl-4-thiomorpholinyl}sulfonyl)phenoxy]-3-pentynylcarbamate] it was 37%; in that of `CC1(C)SCCN(S(=O)(=O)c2ccc(OCC#CCCN)cc2)C1C(=O)NO` (centres unmarked) [Example 246, 4-({4-[(5-Amino-2-pentynyl)oxy]phenyl}sulfonyl)-N-hydroxy-2,2-dimethyl-3-thiomorpholine carboxamide], 4%; in that of `CC1(C)SCCN(S(=O)(=O)c2ccc(OCC#CCOCc3ccccc3)cc2)C1C(=O)NO` (centres unmarked) [Example 247, 4-[(4-{[4-(Benzyloxy)-2-butynyl]oxy}phenyl)sulfonyl]-N-hydroxy-2,2-dimethyl-3-thiomorpholine carboxamide], 57%.
Still for that read-out and setting: the result for `CC1(C)SCCN(S(=O)(=O)c2ccc(OCC#CCCCOC3CCCCO3)cc2)C1C(=O)NO` (centres unmarked) [Example 248, N-Hydroxy-2,2-dimethyl-4-[(4-{[6-(tetrahydro-2H-pyran-2-yloxy)-2-hexynyl]oxy}phenyl)sulfonyl]-3-thiomorpholine carboxamide] reads 21%.
On the same count and under the same terms, in the case of `CC1(C)SCCN(S(=O)(=O)c2ccc(OCC#CCCCO)cc2)C1C(=O)NO` (centres unmarked) [Example 249, N-Hydroxy-4-({4-[(6-hydroxy-2-hexynyl)oxy]phenyl}sulfonyl)-2,2-dimethyl-3-thiomorpholine carboxamide] it was 51%; in that of `CC(C)(C)OC(=O)NCCCC#CCOc1ccc(S(=O)(=O)N2CCSC(C)(C)[C@@H]2C(=O)NO)cc1` [Example 250, tert-Butyl 6-[4-({(3S)-3-[(hydroxyamino)carbonyl]-2,2-dimethylthiomorpholinyl}sulfonyl)phenoxy]-4-hexynylcarbamate], 27%.
Consider `CC1(C)SCCN(S(=O)(=O)c2ccc(OCC#CCCCN)cc2)[C@H]1C(=O)NO` [Example 251, (3S)-4-({4-[(6-Amino-2-hexynyl)oxy]phenyl}sulfonyl)-N-hydroxy-2,2-dimethyl-3-thiomorpholine carboxamide], for which the inhibition at 3 µM stood at 22%.
On the same count and under the same terms, in the case of `CC(C)(C)OC(=O)NCCCCC#CCOc1ccc(S(=O)(=O)N2CCSC(C)(C)[C@@H]2C(=O)NO)cc1` [Example 252, tert-Butyl 7-[4-({(3S)-3-[(hydroxyamino)carbonyl]-2,2-dimethylthiomorpholinyl}sulfonyl)phenoxy]-5-heptynylcarbamate] it was 70%; in that of `CC1(C)SCCN(S(=O)(=O)c2ccc(OCC#CCCCCN)cc2)[C@H]1C(=O)NO` [Example 253, (3S)-4-({4-[(7-Amino-2-heptynyl)oxy]phenyl}sulfonyl)-N-hydroxy-2,2-dimethyl-3-thiomorpholine carboxamide], 37%; in that of `CC1(C)SCCN(S(=O)(=O)c2ccc(OCC#Cc3ccccc3)cc2)[C@H]1C(=O)NO` [Example 254, (3S)-N-Hydroxy-2,2-dimethyl-4-({4-[(3-phenyl-2-propynyl)oxy]phenyl}sulfonyl)-3-thiomorpholine carboxamide], 77%.
The same measure, in the same setting: in the case of `CC#CCOc1ccc(S(=O)(=O)N2CCS(=O)(=O)C(C)(C)[C@@H]2C(=O)NO)cc1` [Example 257, (3S)-4-{[4-(2-Butynyloxy)phenyl]sulfonyl}-N-hydroxy-2,2-dimethyl-3-thiomorpholine carboxamide 1,1-dioxide] it was 91%.
Same read-out and setting: in the case of `C#CCOc1ccc(S(=O)(=O)N2CCSC(C)(C)[C@@H]2C(=O)NO)cc1` [Example 258, (3S)-N-Hydroxy-2,2-dimethyl-4-{[4-(2-propynyloxy)phenyl]sulfonyl}-3-thiomorpholine carboxamide] it was 91%.
Regarding `CCC#CCOc1ccc(S(=O)(=O)N2CCSC(C)(C)[C@@H]2C(=O)NO)cc1` [Example 259, (3S)-N-Hydroxy-2,2-dimethyl-4-{[4-(2-pentynyloxy)phenyl]sulfonyl}-3-thiomorpholine carboxamide], the inhibition at 3 µM is 92%.
For `CC(=O)OCC#CCOc1ccc(S(=O)(=O)N2CCSC(C)(C)[C@@H]2C(=O)NO)cc1` [Example 261, 4-[4-({(3S)-3-[(Hydroxyamino)carbonyl]-2,2-dimethylthiomorpholinyl}suffonyl)phenoxy]-2-butynyl acetate], the inhibition at 3 µM amounted to 92%.
Still for that read-out and setting: in the case of `CC1(C)SCCN(S(=O)(=O)c2ccc(OCC#CC#CCO)cc2)[C@H]1C(=O)NO` [Example 262, (3S)-N-Hydroxy-4-({4-[(6-hydroxy-2,4-hexadiynyl)oxy]phenyl}sulfonyl)-2,2-dimethyl-3-thiomorpholine carboxamide] it was 81%; in that of `C#CC#CCOc1ccc(S(=O)(=O)N2CCSC(C)(C)[C@@H]2C(=O)NO)cc1` [Example 263, (3S)-N-Hydroxy-2,2-dimethyl-4-{[4-(2,4-pentadiynyloxy)phenyl]sulfonyl}-3-thiomorpholine carboxamide], 88%; in that of `CC1(C)SCCN(S(=O)(=O)c2ccc(OCC#CCF)cc2)[C@H]1C(=O)NO` [Example 264, (3S)-4-({4-[(4-Fluoro-2-butynyl)oxy]phenyl}sulfonyl)-N-hydroxy-2,2-dimethyl-3-thiomorpholine carboxamide], 94%.
For `CC1(C)SCCN(S(=O)(=O)c2ccc(OCC#CCN)cc2)C1C(=O)NO` (centres unmarked) [Example 265, 4-({4-[(4-Amino-2-butynyl)oxy]phenyl}sulfonyl)-N-hydroxy-2,2-dimethyl-3-thiomorpholine carboxamide], the inhibition at 3 µM is 40%.
Same read-out and setting: in the case of `CC(C)(C)OC(=O)NCC#CCOc1ccc(S(=O)(=O)N2CCSC(C)(C)C2C(=O)NO)cc1` (centres unmarked) [Example 266, tert-Butyl 4-[4-({3-[(hydroxyamino)carbonyl]-2,2-dimethyl-4-thiomorpholinyl}sulfonyl)phenoxy]-2-butynylcarbamate] it was 79%; in that of `CN(CC#CCOc1ccc(S(=O)(=O)N2CCSC(C)(C)C2C(=O)NO)cc1)C(=O)OC(C)(C)C` (centres unmarked) [Example 267, tert-butyl 4-[4-({3-[(hydroxyamino)carbonyl]-2,2-dimethyl-4-thiomorpholinyl}sulfonyl)phenoxy]-2-butynyl(methyl)carbamate], 15%; in that of `CC(=O)OCCCCC#CCOc1ccc(S(=O)(=O)N2CCSC(C)(C)[C@@H]2C(=O)NO)cc1` [Example 268, 7-[4-({(3S)-3-[(Hydroxyamino)carbonyl]-2,2-dimethylthiomorpholinyl}sulfonyl)phenoxy]-5-heptynyl acetate], 76%.
On the same count and under the same terms, in the case of `CC1(C)SCCN(S(=O)(=O)c2ccc(OCC#CCCCCO)cc2)[C@H]1C(=O)NO` [Example 269, (3S)-N-Hydroxy-4-({4-[(7-hydroxy-2-heptynyl)oxy]phenyl}sulfonyl)-2,2-dimethyl-3-thiomorpholinecarboxamide] it was 77%.
